Laboratory results: article PMC12027702, “Evaluation of Tyrosinase Inhibitory Activity of Carbathioamidopyrazoles and Their Potential Application in Cosmetic Products and Melanoma Treatment” (International Journal of Molecular Sciences, 2025)

Molecular target: T1, mushroom tyrosinase
T1 construct: gene PPO3; PDB 2Y9X is only the docking model
Assay: Dixon plot, L-DOPA oxidation, absorbance at […] nm
Type: biochemical
Details: L-DOPA substrate, phosphate buffer pH 6.88, 20 °C, 20 min preincubation, 10% DMSO; competitive

SMILES	Ki [µM]
NC(=S)n1nc(-c2ccccc2)cc1O [compound 3, 1-[amino(thioxo)methyl]-5-hydroxy-3-phenyl-1Hpyrazole]	118
CCc1cc(CC)n(C(N)=S)n1 [compound 2, 1-[amino(thioxo)methyl]-3,5-diethyl-1Hpyrazole]	64.4
Cc1cc(O)n(C(N)=S)n1 [compound 4, 1-[amino(thioxo)methyl]-5-hydroxy-3-methyl-1H-pyrazole]	7.88
Cc1cc(C)n(C(N)=S)n1 [compound 1, 1-[amino(thioxo)methyl]-3,5-dimethyl-1Hpyrazole]	14.6
